# Where two headings read alike, the source gives them in different places.
# Experiments:
# [1] = target: interaction between PB1 and PA (Influenza A virus, UniProt P03433); test: biochemical; format: binding; conditions: for IC50: calculated from inhibition at maximum obtainable concentration where solubility too low, read-out: IC50 [μM] (ELISA); for Active in ELISA: prescreening; for inhibition at 1000 µM: highest concentration used, read-out: Max. Inhibition (ELISA) at 1000 μM
# [2] = system: influenza virus (A/WSN/33); test: plaque reduction assay, influenza virus in MDCK cells; format: cell-based
# [3] = system: RSV (Long strain); test: RSV induced cell death reduction in HEp-2 cells; format: cell-based, respiratory syncytial virus; conditions: for inhibition at 11 µM: read-out: RSV activity, Maximum inhibition; for RSV activity, Maximum inhibition (in words): serial dilution 100 to 0.14 μM, 72 h
# [4] = system: HA-tagged PA from FluB; test: competitive ELISA, PB1 peptide / PA of FluB; format: binding, influenza B virus; conditions: competitor peptides 0.048 to 3000 nM; […]; standard deviation in parenthesis; * highest concentration used
# [5] = system: HA-tagged PA of FluA
# [6] = human respiratory syncytial virus, HEp-2
Molecule,IC50 [1] [µM],Active in ELISA [1],"inhibition of the replication of influenza virus, particularly influenza A (summary in words) [2]","RSV activity, Maximum inhibition (in words) [3]",IC50 [4] [nM],also measured
"O=[N+]([O-])c1ccc(Sc2ccc(F)cc2)c2nonc12 [PKE079, 4-[(4-fluorophenyl)thio]-7-nitro-2,1,3-benzoxadiazole]",125,Yes,effectively inhibited,,,"inhibition of RSV replication (summary in words) [3]: effective; IC50 [3, 6]: 7 µM; inhibition at 11 µM [3, 6]: 53%"
"O=[N+]([O-])c1ccc(SCc2ccccc2)c2nonc12 [PKE107, 4-nitro-7-(phenylmethylsulfanyl)-2,1,3-benzoxadiazole]",125,Yes,effectively inhibited,inactive,,
"O=[N+]([O-])c1ccc(S(=O)(=O)Cc2ccccc2)c2nonc12 [PKE108, 4-nitro-7-(phenylmethylsulfonyl)-2,1,3-benzoxadiazole]",500,Yes,effectively inhibited,inactive,,
"O=[N+]([O-])c1ccc(Sc2ncnc3c2ncn3C2OC(CO)C(O)C2O)c2nonc12 (centres unmarked) [PKE137, 2-(hydroxymethyl)-5-[6-[(4-nitro-2,1,3-benzoxadiazol-7-yl)sulfanyl]purin-9-yl]oxolane-3,4-diol]",200,Yes,effectively inhibited,inactive,,
"Nc1nc(Sc2ccc([N+](=O)[O-])c3nonc23)c2ncn(C3OC(CO)C(O)C3O)c2n1 (centres unmarked) [PKE138, 2-[2-amino-6-[(4-nitro-2,1,3-benzoxadiazol-7-yl)sulfanyl]purin-9-yl]-5-(hydroxymethyl)oxolane-3,4-diol]",250,Yes,effectively inhibited,inactive,,
"CC(C)(C)c1csc(-c2ccc3nonc3c2)n1 [PKE140, 5-[4-(tert-butyl)-1,3-thiazol-2-yl]-2,1,3-benzoxadiazole]",> 1000,Yes,,inactive,,inhibition at 1000 µM [1]: 34%
"O=[N+]([O-])c1c(NCc2ccccc2)ccc2nonc12 [PKE190, N-benzyl-4-nitro-2,1,3-benzoxadiazol-5-amine]",> 1000,Yes,,inactive,,inhibition at 1000 µM [1]: 37%
"CCN(CC)c1cc(Cl)c2nonc2c1[N+](=O)[O-] [PKE191, 7-chloro-N,N-diethyl-4-nitro-2,1,3-benzoxadiazol-5-amine]",,No,,,,"inhibition of RSV replication (summary in words) [3]: effective; inhibition at 11 µM [3, 6]: 20%"
MDVNPFLLFLKVPAQ [PB11-15 AT5F],,,,,750,IC50 ([5]; read-out: IC50 (nM) PA (FluA)): 2.84 nM
MDVNPTLLFLK [Compound 1-11],,,,,,IC50 ([5]; read-out: IC50 (nM) of FluA-derived PB1 peptides (truncations)): 900 nM
MDVNPTLLFLKVPAQ [PB11-15 A],,,,,> 3000,
MDVNPWLLFLKVPAQ [PB11-15 AT6W],,,,,628,IC50 ([5]; read-out: IC50 (nM) PA (FluA)): 3.4 nM
MDVNPYLLFLKVPAQ [PB11-15 AT5Y],,,,,107,IC50 ([5]; read-out: IC50 (nM) PA (FluA)): 21.6 nM

# Reference: US20120122896A1, “2,1,3-BENZOXADIAZOL DERIVATIVES FOR THE INHIBITION OF INFLUENZA A AND B VIRUS AND RESPIRATORY SYNCYTIAL VIRUS REPLICATION” (PIKE PHARMA GMBH, priority 2009, published 2012)
